# In patent US20240158394A1, “NEK7 INHIBITORS” (Halia Therapeutics, Inc., priority 2022, published 2024):
# Biological target: full-length recombinant human NEK7 (Homo sapiens (Human), UniProt Q8TDX7)
# Assay: NEK7 Enzymatic Assay
# Assay type: biochemical
# Details: casein substrate, [33P]-ATP, 2 hours at room temperature
# Procedure: Casein substrate (from bovine milk, hydrolyzed and partially dephosphorylated mixture of α, β and κ caseins, obtained from Sigma Aldrich, catalogue #C4765, diluted in distilled water to a final concentration of 1 mg/mL) and full-length recombinant human NEK7 (expressed by baculovirus in Sf9 insect cells using a N-terminal GST tag, obtained from SignalChem, catalogue #N09-10G, 0.1 μg/μL) were mixed in assay buffer (20 mM HEPES pH 7.5, 10 mM MgCl2, 1 mM EGTA, 0.02% Brij35, 0.02 mg/mL BSA, 0.1 mM Na3VO4, 2 mM DTT, 1% DMSO). Compounds of interest (serial 3-fold dilution in DMSO from 10 μM to 0.5 nM) or vehicle (1% DMSO) were dispensed into the kinase reaction mixture by Acoustic technology (Echo550; nanoliter range). After incubation at room temperature for 20 minutes, the kinase reaction was initiated by addition of [^33P]-ATP (specific activity 10 μCi/μL) and the mixture was incubated at room temperature for 2 hours. The reaction was then stopped by spotting the reaction mixture on strips of phosphocellulose P81 paper. Following washing, the radioactivity of the P81 paper was measured and kinase activity data were expressed as the percent remaining kinase activity in test samples compared to vehicle reactions. IC50 values and curve fits were obtained using Prism (GraphPad Software).
# full-length recombinant human NEK7, sequence (Q8TDX7 whole entry): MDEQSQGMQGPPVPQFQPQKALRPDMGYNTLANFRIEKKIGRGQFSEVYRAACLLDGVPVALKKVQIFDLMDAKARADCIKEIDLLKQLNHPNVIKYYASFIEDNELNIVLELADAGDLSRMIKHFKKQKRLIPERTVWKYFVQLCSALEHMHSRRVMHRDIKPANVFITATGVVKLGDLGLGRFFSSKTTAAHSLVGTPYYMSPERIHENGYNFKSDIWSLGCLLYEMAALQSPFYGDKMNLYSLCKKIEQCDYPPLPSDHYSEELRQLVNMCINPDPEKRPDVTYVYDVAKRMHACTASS
row,IC50 [nM],Structure (SMILES)
1,> 2000,"CCN1CCC(Oc2ccc(NC(=O)Nc3ccc(-c4cn(C5CC5)c5ncnc(N)c45)c4c3OC(C)C4)cc2C(F)(F)F)CC1 (stereo not shown) [Example I-121, 1-(4-(4-amino-7-cyclopropyl-7H-pyrrolo[2,3-d]pyrimidin-5-yl)-2-methyl-2,3-dihydro-benzofuran-7-yl)-3-(4-((1-ethylpiperidin-4-yl)oxy)-3-(trifluoromethyl)phenyl)urea]"
2,< 200,"CN1CCN(Cc2ccc(NC(=O)Nc3ccc(-c4cn(C)c5ncnc(N)c45)n4ccnc34)cc2C(F)(F)F)CC1 [Example I-127, 1-(5-(4-amino-7-methyl-7H-pyrrolo[2,3-d]pyrimidin-5-yl)imidazo[1,2-a]pyridin-8-yl)-3-(4-((4-methylpiperazin-1-yl)methyl)-3-(trifluorometh-yl)phenyl)urea]"
3,< 200,"Nc1ncnc2c1c(-c1ccc(NC(=O)Nc3cc(C4CC4)on3)c3nccn13)cn2C1CC1 [Example I-120, 1-(5-(4-amino-7-cyclopropyl-7H-pyrrolo[2,3-d]pyrimidin-5-yl)imidazo[1,2-a]pyridin-8-yl)-3-(5-cyclopropylisoxazol-3-yl)urea]"
4,> 2000,"Nc1ncnc2c1c(-c1cnc(NC(=O)Nc3cc(C4(C(F)(F)F)CC4)on3)c3nccn13)cn2C1CC1 [Example I-50, 1-(5-(4-amino-7-cyclopropyl-7H-pyrrolo[2,3-d]pyrimidin-5-yl)imidazo[1,2-a]pyrazin-8-yl)-3-(5-(1-(trifluoromethyl)-cyclopropyl)isoxazol-3-yl)urea]"
5,< 200,"CN1CCN(Cc2ccc(NC(=O)Nc3ccc(-c4cn(CCO)c5ncnc(N)c45)n4ccnc34)cc2C(F)(F)F)CC1 [Example I-130, 1-(5-(4-amino-7-(2-hydroxy-ethyl)-7H-pyrrolo[2,3-d]pyr-imidin-5-yl)imidazo[1,2-a]-pyridin-8-yl)-3-(4-((4-meth-ylpiperazin-1-yl)methyl)-3-(trifluoromethyl)phenyl)urea]"
6,< 200,"CN1CCN(Cc2ccc(NC(=O)Nc3ccc(-c4cn(C5CC5)c5ncnc(N)c45)c4nonc34)cc2C(F)(F)F)CC1 [Example I-78, 1-(7-(4-amino-7-cyclopropyl-7H-pyrrolo[2,3-d]pyrimidin-5-yl)benzo[c][1,2,5]oxadiazol-4-yl)-3-(4-((4-methylpiperazin-1-yl)methyl)-3-(trifluorometh-yl)phenyl)urea]"
7,200 to 500,"CCN1CCC(Oc2ccc(NC(=O)Nc3ccc(-c4cn(C5CC5)c5ncnc(N)c45)c4cnoc34)cc2C(F)(F)F)CC1 [Example I-125, 1-(4-(4-amino-7-cyclopropyl-7H-pyrrolo[2,3-d]pyrimidin-5-yl)benzo[d]isoxazol-7-yl)-3-(4-((1-ethylpiperidin-4-yl)oxy)-3-(trifluoromethyl)phenyl)urea]"
8,< 200,"CC(C)n1cc(-c2ccc(NC(=O)Nc3ccc(CN4CCN(C)CC4)c(C(F)(F)F)c3)c3nccn23)c2c(N)ncnc21 [Example I-128, 1-(5-(4-amino-7-isopropyl-7H-pyrrolo[2,3-d]pyrimidin-5-yl)imidazo[1,2-a]pyridin-8-yl)-3-(4-((4-methylpiperazin-1-yl)methyl)-3-(trifluorometh-yl)phenyl)urea]"
9,> 2000,"Nc1ncnc2c1c(-c1ccc(NC(=O)Nc3cc(C4(C(F)(F)F)CC4)no3)c3ccccc13)cn2C1CC1 [Example I-1, 1-(4-(4-amino-7-cyclopropyl-7H-pyrrolo[2,3-d]pyrimidin-5-yl)naphthalen-1-yl)-3-(3-(1-(trifluoromethyl)cyclopropyl)-isoxazol-5-yl)urea]"
10,< 200,"Nc1ncnc2c1c(-c1ccc(NC(=O)Nc3cc(C4(C(F)(F)F)CC4)on3)c3nccn13)cn2-c1cccnc1 [Example I-91, 1-(5-(4-amino-7-(pyridin-3-yl)-7H-pyrrolo[2,3-d]pyrimidin-5-yl)imidazo[1,2-a]pyridin-8-yl)-3-(5-(1-(trifluoromethyl)-cyclopropyl)isoxazol-3-yl)urea]"
11,200 to 500,"CC1(c2cc(NC(=O)Nc3ccc(-c4cn(C5CC5)c5ncnc(N)c45)n4ccnc34)on2)CCC1 [Example I-19, 1-(5-(4-amino-7-cyclopropyl-7H-pyrrolo[2,3-d]pyrimidin-5-yl)imidazo[1,2-a]pyridin-8-yl)-3-(3-(1-methylcyclobutyl)-isoxazol-5-yl)urea]"
12,< 200,"CCN1CCN(Cc2ccc(NC(=O)Nc3ccc(-c4cn(C5CC5)c5ncnc(N)c45)n4ccnc34)cc2C(F)(F)F)CC1 [Example I-35, 1-(5-(4-amino-7-cyclopropyl-7H-pyrrolo[2,3-d]pyrimidin-5-yl)imidazo[1,2-a]pyridin-8-yl)-3-(4-((4-ethylpiperazin-1-yl)methyl)-3-(trifluorometh-yl)phenyl)urea]"
13,> 2000,"Cc1cc(NC(=O)Nc2ccc(-c3cn(C4CC4)c4ncnc(N)c34)n3ccnc23)on1 [Example I-14, 1-(5-(4-amino-7-cyclopropyl-7H-pyrrolo[2,3-d]pyrimidin-5-yl)imidazo[1,2-a]pyridin-8-yl)-3-(3-methylisoxazol-5-yl)-urea]"
14,500 to 2000,"CC1(C)Cc2c(-c3cn(C4CCC4)c4ncnc(N)c34)ccc(NC(=O)Nc3cc(C4(C(F)(F)F)CC4)on3)c2O1 [Example I-122, 1-(4-(4-amino-7-cyclobutyl-7H-pyrrolo[2,3-d]pyrimidin-5-yl)-2,2-dimethyl-2,3-dihydrobenzofuran-7-yl)-3-(5-(1-(trifluoromethyl)cyclo-propyl)isoxazol-3-yl)urea]"
15,500 to 2000,"CN1CCC(Oc2ccc(NC(=O)Nc3ccc(-c4cn(C5CC5)c5ncnc(N)c45)c4ccoc34)cc2C(F)(F)F)CC1 [Example I-67, 1-(4-(4-amino-7-cyclopropyl-7H-pyrrolo[2,3-d]pyrimidin-5-yl)benzofuran-7-yl)-3-(4-((1-methylpiperidin-4-yl)oxy)-3-(trifluoromethyl)phenyl)urea]"
16,500 to 2000,"CC1Cc2c(-c3cn(C4CC4)c4ncnc(N)c34)ccc(NC(=O)Nc3ccc(CN4CCN(C)CC4)c(C(F)(F)F)c3)c2O1 (stereo not shown) [Example I-57, 1-(4-(4-amino-7-cyclopropyl-7H-pyrrolo[2,3-d]pyrimidin-5-yl)-2-methyl-2,3-dihydro-benzofuran-7-yl)-3-(4-((4-methylpiperazin-1-yl)methyl)-3-(trifluoromethyl)phenyl)urea]"
17,200 to 500,"CN1CCC(n2cc(-c3ccc(NC(=O)Nc4ccc(CN5CCN(C)CC5)c(C(F)(F)F)c4)c4nccn34)c3c(N)ncnc32)CC1 [Example I-134, 1-(5-(4-amino-7-(1-methyl-piperidin-4-yl)-7H-pyrrolo-[2,3-d]pyrimidin-5-yl)imidazo-[1,2-a]pyridin-8-yl)-3-(4-((4-methylpiperazin-1-yl)methyl)-3-(trifluoromethyl)phenyl)urea]"
18,< 200,"CN1CCC(Oc2ccc(NC(=O)Nc3ccc(-c4cn(C5CC5)c5ncnc(N)c45)c4cnoc34)cc2C(F)(F)F)CC1 [Example I-70, 1-(4-(4-amino-7-cyclopropyl-7H-pyrrolo[2,3-d]pyrimidin-5-yl)benzo[d]isoxazol-7-yl)-3-(4-((1-methylpiperidin-4-yl)oxy)-3-(trifluoromethyl)-phenyl)urea]"
19,> 2000,"Nc1ncnc2c1c(-c1ccc(NC(=O)Nc3cc(C4(C(F)(F)F)CC4)no3)c3occc13)cn2C1CC1 [Example I-64, 1-(4-(4-amino-7-cyclopropyl-7H-pyrrolo[2,3-d]pyrimidin-5-yl)benzofuran-7-yl)-3-(3-(1-(trifluoromethyl)cyclo-propyl)isoxazol-5-yl)urea]"
20,< 200,"CC(C)(F)c1cc(NC(=O)Nc2ccc(-c3cn(C4CC4)c4ncnc(N)c34)n3ccnc23)on1 [Example I-20, 1-(5-(4-amino-7-cyclopropyl-7H-pyrrolo[2,3-d]pyrimidin-5-yl)imidazo[1,2-a]pyridin-8-yl)-3-(3-(2-fluoropropan-2-yl)isoxazol-5-yl)urea]"
21,200 to 500,"Nc1ncnc2c1c(-c1ccc(NC(=O)Nc3cc(C4CC4)no3)c3nccn13)cn2C1CC1 [Example I-119, 1-(5-(4-amino-7-cyclopropyl-7H-pyrrolo[2,3-d]pyrimidin-5-yl)imidazo[1,2-a]pyridin-8-yl)-3-(3-cyclopropylisoxazol-5-yl)urea]"

row,Structure (SMILES),IC50 [nM]
1,"Nc1ncnc2c1c(-c1ccc(NC(=O)Nc3ccc(CN4CCN(CCF)CC4)c(C(F)(F)F)c3)c3nccn13)cn2C1CC1 [Example I-41, 1-(5-(4-amino-7-cyclopropyl-7H-pyrrolo[2,3-d]pyrimidin-5-yl)imidazo[1,2-a]pyridin-8-yl)-3-(4-((4-(2-fluoroethyl)-piperazin-1-yl)methyl)-3-(trifluoromethyl)phenyl)urea]",< 200
